The pIC50 is the negative decadic logarithm of the IC50, by convention in mol/L.

pIC50: −log10 of the molar value.

This test has as its target soluble, sperm-specific adenylate cyclase (sAC) (Homo sapiens, UniProt Q96PN6). Description: sAC-Assay (HTRF cAMP detection). Particulars: read-out: IC50 (inhibition of the soluble adenylate cyclase). In kind it is biochemical. An excerpt:
In a suitable buffer system, the soluble, sperm-specific adenylate cyclase catalyzes the reaction of adenosine triphosphate (ATP) to cyclic adenosine monophosphate (cAMP) and pyrophosphate. Free cAMP that is generated in this way is then used in a competitive detection process, in which the binding of a europium kryptate (Eu[K])-labeled anti-cAMP antibody (anti cAMP-Eu[K]-AK) to a cAMP-molecule-labeled, modified allophycocyanine-1 molecule (cAMP-XL665) is prevented. In the absence of exogenic cAMP, after excitation at 335 nm, it results in a fluorescence resonance energy transfer (FRET) between the anti cAMP-Eu[K]-AK (FRET-donor) and the cAMP-XL665 molecule (FRET-acceptor). This process is quantified at different times (time-resolved) based on the emission of FRET-acceptor XL665 (665 nm and 620 nm). A signal drop (measured as a wave ratio; calculation formula: [(E665 nm/E620 nm)×10000]) can be attributed to the presence of cAMP and thus to the activity of sAC.
First, 1.5 μl of the test substance (in 30% DMSO), only 30% DMSO in the solvent controls, is introduced per recess in a 384-hole test plate (polystyrene; 384, NV). […]
After an additional incubation of 90 minutes at room temperature, the HTRF result is measured either on the Packard Discovery or with the RubiStar HTRF measuring device (Delay: 50 μs; Integration time: 400 μs).
On the technique in general: TR-FRET usually uses a lanthanide donor and a delayed reading to cut background.

Chain of soluble, sperm-specific adenylate cyclase (sAC) (Q96PN6 whole entry): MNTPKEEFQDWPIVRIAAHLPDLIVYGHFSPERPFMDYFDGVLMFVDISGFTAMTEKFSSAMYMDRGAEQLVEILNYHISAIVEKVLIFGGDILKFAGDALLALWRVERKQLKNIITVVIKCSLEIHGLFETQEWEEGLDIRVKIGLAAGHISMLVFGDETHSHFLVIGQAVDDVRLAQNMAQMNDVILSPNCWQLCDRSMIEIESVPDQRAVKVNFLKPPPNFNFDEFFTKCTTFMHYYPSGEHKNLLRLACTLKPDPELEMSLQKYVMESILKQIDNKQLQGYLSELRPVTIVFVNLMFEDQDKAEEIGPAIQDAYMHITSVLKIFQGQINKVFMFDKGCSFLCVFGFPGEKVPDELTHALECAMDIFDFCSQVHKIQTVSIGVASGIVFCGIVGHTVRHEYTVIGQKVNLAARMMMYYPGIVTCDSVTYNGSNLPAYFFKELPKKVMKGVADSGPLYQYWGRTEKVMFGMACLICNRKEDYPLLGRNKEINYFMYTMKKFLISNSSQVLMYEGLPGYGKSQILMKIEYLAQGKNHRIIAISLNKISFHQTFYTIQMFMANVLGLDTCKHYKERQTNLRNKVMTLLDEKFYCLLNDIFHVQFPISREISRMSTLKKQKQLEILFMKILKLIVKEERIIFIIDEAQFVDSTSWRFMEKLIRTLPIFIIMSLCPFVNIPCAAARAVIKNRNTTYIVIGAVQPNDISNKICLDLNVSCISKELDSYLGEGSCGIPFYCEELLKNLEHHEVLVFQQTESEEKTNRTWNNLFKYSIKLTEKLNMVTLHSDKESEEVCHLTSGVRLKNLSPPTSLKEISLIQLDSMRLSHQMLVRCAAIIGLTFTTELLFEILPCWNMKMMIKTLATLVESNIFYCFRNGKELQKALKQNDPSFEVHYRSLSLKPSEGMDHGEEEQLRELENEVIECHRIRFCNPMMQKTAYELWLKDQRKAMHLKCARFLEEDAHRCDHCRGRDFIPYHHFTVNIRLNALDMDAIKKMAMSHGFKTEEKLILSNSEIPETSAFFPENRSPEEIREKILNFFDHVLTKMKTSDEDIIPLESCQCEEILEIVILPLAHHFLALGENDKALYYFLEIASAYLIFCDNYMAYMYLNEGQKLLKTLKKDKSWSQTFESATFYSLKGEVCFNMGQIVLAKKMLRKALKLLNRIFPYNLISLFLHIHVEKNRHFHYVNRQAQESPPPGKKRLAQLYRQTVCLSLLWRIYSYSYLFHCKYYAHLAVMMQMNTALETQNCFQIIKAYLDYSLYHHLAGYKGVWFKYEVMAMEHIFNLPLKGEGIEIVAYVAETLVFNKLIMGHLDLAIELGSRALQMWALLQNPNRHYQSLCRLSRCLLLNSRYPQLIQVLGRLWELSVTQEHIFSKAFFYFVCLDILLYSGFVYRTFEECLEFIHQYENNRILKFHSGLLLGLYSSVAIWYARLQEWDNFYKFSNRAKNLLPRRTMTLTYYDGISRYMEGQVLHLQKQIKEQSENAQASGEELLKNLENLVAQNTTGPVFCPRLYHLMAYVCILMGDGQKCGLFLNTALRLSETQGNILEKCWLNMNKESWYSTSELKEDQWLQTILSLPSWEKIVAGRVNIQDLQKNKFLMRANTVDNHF

Turning to `CC(O)CNC(=O)c1[nH]c2ccc(S(=O)(=O)Nc3ccc(C(C)(C)C)cc3)cc2c1-c1ccccc1` (racemic), the pIC50 is 5.80.
As for `CC(C)(C)c1ccc(NS(=O)(=O)c2ccc3[nH]c(C(=O)NC4CCOCC4)c(-c4ccccc4)c3c2)cc1`, the figure is 5.52.

These data come from patent US20070259872A1, “Inhibitors of soluble adenylate cyclase” (priority 2006, published 2007).
